{"source": "patent US8354265B2", "about": "“Chemicals promoting the growth of N-acylhomoserine lactone-degrading bacteria” (Centre National de la Recherche Scientifique, priority 2007, dated 2013)", "key": {"[1]": {"test_system": "NAHL-degrading rhizobacteria of potato rhizosphere", "test": "Preliminary experiment in planted hydroponic batches: level and diversity of NAHL-degrading rhizobacteria (Table 1)", "type": "in vivo, Solanum tuberosum var. Allians", "description": "(§1) The non sterile batches (40×60×8 cm) contained 13 L of the nutritive solution Hydrobloom (Cellmax, UK) with Nitrogen at 0.80 g/L, Phosphore at 0.56 g/L and Potassium at 1.48 g/L as major components. The solution was diluted from a concentrated stock solution (×250) with non sterile water from the public water system. One hundred plants of Solanum tuberosum var. Allians, which were recovered from cultures performed under sterile conditions, were placed into holes (3 cm space to each other) of batch covers. Planted batches were placed in the greenhouse (Comité Nord Plants de Pomme de Terre, Bretteville-du-Grand-Caux) under natural light at 10-15° C. (night) and 25-30° C. (day). […] An untreated batch was used as a control. One gram of roots (fresh weight) was resuspended in 10 mL of sterile MgSO4 10 mM, diluted and spread on TSA and King B plates to isolate total cultivable bacteria and fluorescent Pseudomonas, respectively. Three samples were analyzed from each batch at each time D0, D14 and D28; from each sample, thirty isolates from TSA plates and thirty fluorescent isolates from King B plates were individually tested from production and inactivation of NAHL signal.\n(§2) Bacterial isolates grown in 96-microwell plates were individually tested from production of NAHL with the A. tumefaciens biosensor NT1 (pZNLR4) and the inactivation of the C6-HSL signal, as described previously (d'Angelo-Picard et al. 2004).\nAt least 400 bp were submitted to the NCBI database."}, "bacterial consortia": {"test_system": "bacterial consortia", "test": "Inactivation of C6-HSL and OC8-HSL by mannitol, 6CL, GCL and HTN consortia", "type": "cell-based", "excerpt": "(§3) The Mannitol-, 6CL-, GCL-, and HTN-consortia were compared for their capacity to inactivated OC8-HSL, the major NAHL produced by the plant pathogen Erwinia carotovora subsp. atroseptica 6276, as well as for their biocontrol activity against this pathogen in potato maceration assay."}, "[2]": {"test_system": "bacterial consortia from unplanted soil", "test": "C6-HSL inactivation by bacterial consortia enriched from unplanted soil on the compound as sole carbon source", "type": "cell-based", "settings": "soil and rhizospheric samples; among 25 assayed molecules"}, "[3]": {"test_system": "NAHL-degrading and NAHL-producing bacteria of potato rhizosphere", "test": "Two independent analyses of 6CL and GCL treatments on planted batches (FIG. 7)", "type": "in vivo, Solanum tuberosum var. Allians", "excerpt": "FIG. 7: Percentage of NAHL-degrading and NAHL-producing strains in potato rhizosphere. […] An untreated batch was used as a control in the two independent sets of experiments. The mean of three replicates is shown. Statistically different values (Student t test; 0.05) are noted by different letters.\nas §1, §2\nAn untreated batch was used as a control."}, "[4]": {"test_system": "bacterial consortia originating from rhizospheric soil", "test": "C6-HSL inactivation by bacterial consortia enriched from rhizospheric soil", "type": "cell-based"}, "[5]": {"test_system": "bacteria recovered from the consortia", "test": "NAHL production and inactivation by isolates recovered from the consortia, with rrs identification", "type": "cell-based"}, "[6]": {"test_system": "NAHL-degrading rhizobacteria", "test": "Diversity of NAHL-degrading rhizobacteria after 6CL and GCL treatments, rrs sequencing (Table 2)", "type": "in vivo, Solanum tuberosum", "settings": "D14 and D28; 0.1 mL/L", "description": "as §1\nThe 5′-end of the rrs gene was amplified with primers pA (5′-[…]) (SEQ ID NO:1) and 518r (5′-[…]) (SEQ ID NO:2), and sequenced with pA primer by GenomeExpress (Meylan, France). At least 400 bp were submitted to the NCBI database. Although some sequence comparisons authorized identification of isolates at the species level, only the genus level was retained in this study for homogeneity.\nThe isolates were identified by rrs-sequencing (Table 2). At D0, most of the NAHL-degrading isolates were identified as Delftia. However, at D14 and D28, the Agrobacterium isolates dominated in untreated batches, while they were not detected in the treated batches. In those, the more frequently counted bacteria were Delftia and Rhodococcus."}, "young plants": {"test_system": "young plants", "settings": "in vivo"}, "[7]": {"test_system": "Erwinia carotovora subsp. atroseptica 6276", "test": "Maceration assay on potato tubers (biocontrol activity of consortia)", "type": "in vivo", "settings": "potato tubers infected with mix of Erwinia carotovora 6276 and consortia", "excerpt": "FIG. 6: Maceration assay on potato tubers.\nas §3"}, "[8]": {"test_system": "NAHL-degrading bacteria in the nutritive solution", "test": "Ratio of NAHL-degrading bacteria in unplanted batches of nutritive solution", "type": "cell-based", "settings": "for percentage of NAHL-degrading bacteria in the nutritive solution: without plants", "description": "as §1, §2\nAllians was evaluated. The plants were cultivated in vitro under sterile conditions, then placed into batches in a greenhouse at Bretteville-du-Grand-Caux (France) in a non-sterile environment. Especially, a non-sterile nutritive solution was used and served as a source of naturally occurring bacteria. […] The ratio of NAHL-degrading bacteria in the nutritive solution was evaluated before the treatment and 14-day later. This percentage increased from 10±2 to 30±2 in the case of the 6CL-treated batch and from 10±2 to 70±2 in the GCL-treated batch. From the 6CL- and GCL-treated batches, 10 NAHL-degrading bacteria were identified by their rrs sequence: 9 belonged to the Delftia genus, the other one to the Rhodococcus genus."}, "[9]": {"settings": "6CL- and GCL-treated batches together, rrs sequence"}}}
{"smiles": "O=C1CCCCCO1", "note": "[6CL, 6-caprolactone, reference compound]", "values": [{"measurement": "increase of the ratio of NAHL-degrading bacteria", "setting": "[1]; 0.1 mL/L, 28 days after amendment, planted batches", "value": "not"}, {"measurement": "Log CFU/gram of root (fresh weight)", "setting": "[1]; D0 (before treatment)", "value": "8.0 ± 7.6 Log CFU/gram of root (fresh we"}, {"measurement": "NAHL degraders (%)", "setting": "[1]; D0 (before treatment)", "value": "8.9 ± 1.5", "unit": "%"}, {"measurement": "NAHL producers (%)", "setting": "[1]; D0 (before treatment)", "value": "7.8 ± 1.2", "unit": "%"}, {"measurement": "rrs-identified NAHL-degraders: Delftia", "setting": "[1]; D0, of 8 isolates", "value": 7}, {"measurement": "rrs-identified NAHL-degraders: Pseudomonas", "setting": "[1]; D0, of 8 isolates", "value": 1}, {"measurement": "Log CFU/gram of root (fresh weight)", "setting": "[1]; D28, 0.1 mL/L", "value": "10.5 ± 10.1 Log CFU/gram of root (fresh we"}, {"measurement": "NAHL degraders (%)", "setting": "[1]; D28, 0.1 mL/L", "value": "6.7 ± 1.7", "unit": "%"}, {"measurement": "NAHL producers (%)", "setting": "[1]; D28, 0.1 mL/L", "value": "5.6 ± 0.6", "unit": "%"}, {"measurement": "identified genera of NAHL-degrading bacteria", "setting": "[1]; D28, 0.1 mL/L", "value": 3}, {"measurement": "rrs-identified NAHL-degraders: Agrobacterium", "setting": "[1]; D28, 0.1 mL/L, of 8 isolates", "value": 4}, {"measurement": "rrs-identified NAHL-degraders: Delftia", "setting": "[1]; D28, 0.1 mL/L, of 8 isolates", "value": 2}, {"measurement": "rrs-identified NAHL-degraders: Pseudomonas", "setting": "[1]; D28, 0.1 mL/L, of 8 isolates", "value": 2}, {"measurement": "speed of C6-HSL signal inactivation versus Mannitol consortia", "setting": "bacterial consortia", "value": "inactivated more rapidly"}, {"measurement": "speed of OC8-HSL signal inactivation versus Mannitol consortia", "setting": "bacterial consortia", "value": "inactivated more rapidly"}, {"measurement": "growth stimulation of NAHL-degrading bacteria after enrichment procedures", "setting": "[2]", "value": "stimulated the growth of NAHL-degrading bacteria"}, {"measurement": "specific effect on the NAHL-degrading bacteria of the rhizosphere", "setting": "[3]; 0.1 mL/L", "value": "no specific effect"}, {"measurement": "proportion of NAHL-degrading bacteria", "setting": "[3]; 0.1 mL/L, during all experiments", "value": "remained at a quite similar level"}, {"measurement": "modification of the ratio of NAHL-producing bacteria", "setting": "[3]; 6CL 0.1 mL/L, GCL 0.1 and 0.4 mL/L, D14 and D28", "value": "no repeatable modification"}, {"measurement": "activity of consortia towards C6-HSL (ranking)", "setting": "[4]", "value": "the most active"}, {"measurement": "NAHL-inactivating bacteria recovered from consortia", "setting": "[5]", "value": "recovered"}, {"measurement": "NAHL-degrading isolates related to Chryseobacterium", "setting": "[5]; 6CL and GCL consortia together", "value": 10, "unit": "%"}, {"measurement": "NAHL-degrading isolates related to Delftia", "setting": "[5]; 6CL and GCL consortia together", "value": "80 % of the identified strains"}, {"measurement": "NAHL-degrading isolates related to Ralstonia", "setting": "[5]; 6CL and GCL consortia together", "value": 3, "unit": "%"}, {"measurement": "NAHL-degrading isolates related to Rhodococcus", "setting": "[5]; 6CL and GCL consortia together", "value": 7, "unit": "%"}, {"measurement": "NAHL-producing bacteria among isolates of the consortia", "setting": "[5]; 280 isolates from 280 independent enrichments", "value": "none"}, {"measurement": "rrs-identified NAHL-degraders: Delftia", "setting": "[6]", "value": 9}, {"measurement": "rrs-identified NAHL-degraders: Others", "setting": "[6]", "value": 2}, {"measurement": "rrs-identified NAHL-degraders: Rhizobium", "setting": "[6]", "value": 1}, {"measurement": "rrs-identified NAHL-degraders: Rhodococcus", "setting": "[6]", "value": 6}, {"measurement": "sensitivity of young plants", "setting": "young plants", "value": "sensitive"}, {"measurement": "biocontrol activity of the consortia against E. carotovora 6276", "setting": "[7]", "value": "did not"}, {"measurement": "NAHL-degrading bacteria belonging to the Delftia genus (of 10 identified)", "setting": "[8]; [9]", "value": 9}, {"measurement": "NAHL-degrading bacteria belonging to the Rhodococcus genus (of 10 identified)", "setting": "[8]; [9]", "value": "one"}, {"measurement": "percentage of NAHL-degrading bacteria in the nutritive solution", "setting": "[8]; 14-day after treatment at 1 mL/L", "value": "30±2", "unit": "%"}, {"measurement": "percentage of NAHL-degrading bacteria in the nutritive solution", "setting": "[8]; before the treatment", "value": "10±2", "unit": "%"}]}
